# Where two headings read alike, the source gives them in different places. Ends that are not written are not given here. Peptide text beside a SMILES is read from it.
# Assays:
# [1] = test system: A. Baumannii AB5075; format: cell-based, Acinetobacter baumannii
# Excerpt: (§1) To evaluate the susceptibility of the different peptide sequences against clinical isolates of various bacterial pathogens, we used the minimum inhibitory concentration (MIC) assay. The MIC measures the efficacy of peptides in inhibiting bacterial growth. The specific MIC values of various peptides against Enterococcus […] ATCC19433, Staphylococcus aureus ATCC25923, Klebsiella pneumoniae ATCC43816, Acinetobacter baumannii AB5075, Pseudomonas aeruginosa PAO1, and Enterobacter species ATCC13048 were determined by measuring optical density at 600 nm (OD600 nm). […] The growth inhibition curves were used to estimate the MIC values.
# (§2) Bacteria: The MIC was the lowest concentration of a drug, which inhibited the visible growth of a bacteria and could be determined by reading the absorption at 600 nm (OD600 nm) using a spectrophotometer. The peptides were subjected to antibacterial testing against gram‐positive and gram‐negative pathogens. All the ESKAPE pathogens (E. faecalis ATCC19433, S. aureus ATCC25923, K. pneumoniae ATCC43816, A. baumannii AB5075, P. aeruginosa PAO1, and E. aerogenes ATCC13048) were inoculated from nutrient agar plates to obtain a bacterial suspension by incubating the colony of bacteria in a flask containing 10 mL of Mueller Hinton broth II (MHB) at 37 °C for 24 h with gentle shaking (75 rpm). The bacterial suspensions were then diluted in MHB to 1 × 10^6 colony‐forming units (CFU) of bacteria mL^−1. Next, using serial dilutions in 96‐well plates, different concentrations of each peptide from 1.5–400 μM were prepared. 100 μL of peptide solutions at final concentration ranging between 0.75–200 μM were then added to a 96‐well plate containing 100 μL of diluted bacterial suspension. After 18–24 h incubation at 37 °C, the turbidity of the samples was observed, and the optical density of bacteria was measured using OD600 nm. All assays were performed in duplicates. The MICs were calculated as ≥90% inhibition of bacteria growth compared to the positive control wells.
# [2] = test system: K. Pneumoniae ATCC43816; format: cell-based, Klebsiella pneumoniae
# Excerpt: as §1, §2
# [3] = test system: S. Aureus ATCC25923; format: cell-based, Staphylococcus aureus
# Excerpt: as §1, §2
# [4] = test system: P. Aeruginosa PAO1; format: cell-based, Pseudomonas aeruginosa
# Excerpt: as §1, §2
# [5] = test system: E. Faecalis ATCC19433; format: cell-based, Enterococcus faecalis
# Excerpt: as §1, §2
# [6] = test system: E. Aerogenes ATCC13048; format: cell-based, Enterobacter aerogenes
# Excerpt: as §1, §2
# [7] = broth microdilution, Mueller Hinton broth II, peptide 0.75–200 μM, 18–24 h at 37 °C, OD600 nm, MIC = ≥90% inhibition, duplicates
Compound,MIC A. Baumannii AB5075 ([1]; AB5075) [µM],MIC K. Pneumoniae ATCC43816 ([2]; ATCC43816) [µM],MIC S. Aureus ATCC25923 ([3]; ATCC25923) [µM],MIC P. Aeruginosa PAO1 ([4]; PAO1) [µM],MIC E. Faecalis ATCC19433 ([5]; ATCC19433) [µM],MIC E. Aerogenes ATCC13048 ([6]; ATCC13048) [µM],also measured
CC[C@H](C)[C@H](NC(=O)[C@H](CCC(N)=O)NC(=O)[C@@H]1CCCN1C(=O)[C@H](Cc1ccccc1)NC(=O)[C@H](CCCCN)NC(=O)[C@H](CCCCN)NC(=O)CNC(=O)[C@H](Cc1ccccc1)NC(=O)[C@@H](N)Cc1c[nH]c2ccccc12)C(=O)N[C@@H](C)C(=O)N[C@@H](CS)C(=O)N[C@@H](CCCCN)C(=O)N[C@@H](CCCNC(=N)N)C(=O)N[C@@H](CS)C(=O)N[C@@H](CS)C(N)=O [MLWH 43] (H-WFGKKFPQIACKRCC-NH2),25,–,–,–,–,–,–
AIVKKGWIKILAWVF-NH2 [MLWH 36],–,100,6,200,100,100,–
ALFLGGIWKKLPKAI-NH2 [MLWH02],100,–,–,100,–,–,–
ALKAKLKFPGKFLFK-NH2 [MLWH 25],100,100,–,200,–,200,–
AVLIAKLFHKLNKIK-NH2 [MLWH 15],100,200,–,200,200,–,–
AWLKFKKKFGLFAKI-NH2 [MLWH11],12.5,12.5,100,25,25,12.5,–
FLPLIILKFIGKLLP-NH2 [MLWH 19],200,–,3,–,1.5,–,–
"FNKGKKFFFKFIKWV [MLWH73, peptide generated using algorithm, list 2]",–,–,–,–,–,–,"MIC A. Baumannii AB5075 [1, 7]: 12.5 µM; MIC K. Pneumoniae ATCC43816 [2, 7]: 12.5 µM; MIC S. Aureus ATCC25923 [3, 7]: 25 µM; MIC P. Aeruginosa PAO1 [4, 7]: 25 µM; MIC E. Faecalis ATCC19433 [5, 7]: 25 µM; MIC E. Aerogenes ATCC13048 [6, 7]: 25 µM"
FVTITLKNFAKKKVG-NH2 [MLWH 28],200,200,–,–,–,200,–
GGAFFKLTQKIIKKA-NH2 [MLWH07],50,200,–,200,–,–,–
GIKIIGIKVATFLKA-NH2 [MLWH03],–,200,–,–,–,–,–
GKIFGKLFLALIKMW-NH2 [MLWH06],25,–,25,200,12.5,200,–
GLLTTGKKKLLGIIA-NH2 [MLWH 26],200,–,–,–,–,–,–
GLWKIKLAFGKMFAK-NH2 [MLWH05],12.5,25,100,25,25,25,–
GPLMGAFIKKLLPKF-NH2 [MLWH 48],25,100,–,100,200,200,–
IKVILKLVTNKGNGI-NH2 [MLWH 21],50,200,–,–,200,200,–
KFITKFVKGLGLGTL-NH2 [MLWH 23],50,200,–,200,–,–,–
KGFAKMFRLLKKLAR-NH2 [MLWH 32],3,12.5,6,25,12.5,25,–
KHVFAFLGGKLVKLK-NH2 [MLWH 35],50,200,–,–,–,–,–
KLKGLIFAWFKGIIA-NH2 [MLWH 45],25,100,100,200,25,25,–
"LGVKPVFKFFKFFGK [MLWH51, peptide generated using algorithm, list 2]",–,–,–,–,–,–,"MIC A. Baumannii AB5075 [1, 7]: 12.5 µM; MIC K. Pneumoniae ATCC43816 [2, 7]: 100 µM; MIC S. Aureus ATCC25923 [3, 7]: 200 µM; MIC P. Aeruginosa PAO1 [4, 7]: 50 µM; MIC E. Faecalis ATCC19433 [5, 7]: 100 µM; MIC E. Aerogenes ATCC13048 [6, 7]: 200 µM"
LLGFTAFIKGQIKTA-NH2 [MLWH09],200,100,50,200,50,100,–
NFKIIKKVGIKLKGA-NH2 [MLWH 33],100,–,–,–,–,–,–
"RMFFKFKKKFKKWGQ [MLWH74, peptide generated using algorithm, list 2]",–,–,–,–,–,–,"MIC A. Baumannii AB5075 [1, 7]: 25 µM; MIC K. Pneumoniae ATCC43816 [2, 7]: 25 µM; MIC S. Aureus ATCC25923 [3, 7]: 50 µM; MIC P. Aeruginosa PAO1 [4, 7]: 200 µM; MIC E. Faecalis ATCC19433 [5, 7]: 200 µM; MIC E. Aerogenes ATCC13048 [6, 7]: 100 µM"
VHKAFRKGSGAAILW-NH2 [MLWH 27],200,200,–,–,–,–,–
VQKLLKFKLKITAKA-NH2 [MLWH08],100,50,–,200,100,50,–
WFKAIAIGLGKFIAK-NH2 [MLWH 14],25,25,25,–,25,25,–
YFHLKKSFGKKLKRV-NH2 [MLWH 41],100,–,–,–,–,–,–

# Reference: paper PMC12168616, “Machine Learning‐Assisted Prediction and Generation of Antimicrobial Peptides” (Small Science, 2025)
